Experimental findings from PubChem BioAssay (NCI) are described below.

Assay in all cases: NCI anticancer screen, dose series, 48 h
Test [1] concerns HCT-116 colon.
In test [2] the test system is KM12 colon.
The test system of test [3] is M14 melanoma.
Test [4] relates to HL-60(TB) leukemia.
Test [5] has as its system SNB-78 CNS.
Test [6] concerns KM20L2 colon.
The subject of test [7] is SK-MEL-2 melanoma.
Test [8] has as its system LXFL 529 NSCLC.
In test [9] the test system is MCF7 breast.
Test [10] relates to PC-3 prostate.

Values joined by “and” are separate entries in the source; they are usually repeats but may differ in a detail not shown here. Identical values can stand only once.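 Values below derive from 48-hour exposures of cells grown in 96-well plates, with endpoints linearly interpolated between the two concentrations bracketing the appropriate inhibition level. The concentration for 50% growth inhibition is given as GI50. The concentration for full growth arrest is given as TGI.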

With `COc1cccc(C=NC23CC4CC(CC(C4)C2)C3)c1`, the TGI in test [1], in test [2], in [3], in test [4], in test [5] and in test [6] was > 100 µM each time. Also, the TGI in test [7] was > 100 µM.
In the case of `CCOC(=N)CC(=O)Nc1ccccc1CC`, the TGI in test [1], in test [2], in test [8], in test [3], in test [4] and in test [5] was > 100 µM throughout. The TGI in [6] and in [7] was > 100 µM throughout.
Consider `Cc1cc(O)c2c(c1)OC1(C)CCC3C(C)(C)CCCC34COC2C14` (stereo not given), for which the TGI in test [1] is 27.3 µM; in test [2] it was 35.3 µM; in test [8], 28.2 µM; in test [3], 29.1 µM; in test [4] it was 63.7 µM; in test [6], 33.3 µM.
Regarding `CNC(=O)NCCCCC(NC(C)=O)C(=O)NCc1ccccc1` (stereo not given), the TGI in test [1], in test [2], in test [8], in [3], in [5] and in test [6] was > 100 µM in each case. For the same compound, in test [7], the TGI was > 100 µM.
Consider `O=C(Nc1ccccc1)N1C(c2ccccc2)=N[C@@H](c2ccccc2)[C@@H]1c1ccccc1`, for which the TGI in [1] is 36.3 µM; in test [2] it was 34 µM; in [8], 31.6 µM; in test [3], 28.2 µM; in [4] it was 46.5 µM; in test [5], > 100 µM. The compound further gave a TGI in test [6] of 37.3 µM.
On to `COc1ccccc1/C=C(\NC(=O)c1ccccc1)c1nc2ccccc2[nH]1`, for which the TGI in test [1] was > 100 µM; in test [2], > 100 µM; in test [8] it was 96.9 µM; in [3], > 100 µM; in test [5], > 100 µM; in test [6], > 100 µM. For the same compound, the TGI in [7] is > 100 µM.
Consider `Cc1cccc(C=NC23CC4CC(CC(C4)C2)C3)c1`, for which the TGI in [1], in test [2], in [3], in test [4], in test [5] and in test [6] was > 100 µM throughout. Moreover, the TGI in test [7] is > 100 µM.
For the compound `Cc1c(-c2ccc(-c3ccccc3F)cc2)nc2ccc(F)cc2c1C(=O)O`, the GI50 is 0.5 µM in test [1]; 0.645 µM and 0.889 µM in test [2]; 0.445 µM and 0.979 µM in test [9]; 6.76 µM and 24.4 µM in [3]; 1.12 µM in [6]; 135 µM in test [7]. Besides, the GI50 in test [10] is 0.27 µM and 0.75 µM. In addition, the TGI in test [1] was 78.7 µM and 124 µM; in test [2] it was 109 µM and 198 µM; in [9] it was 170 µM and 405 µM; in [3] it was 111 µM and 219 µM; in test [4], 36.4 µM and 148 µM and 302 µM; in test [6] it was 170 µM and 171 µM. For the same compound, the TGI is 148 µM and 909 µM in test [7]; 103 µM and 429 µM in test [10].
`C/C(=C\c1ccccc1)C(=O)c1c(C)cc(C)cc1C`: the TGI in test [1], in test [2], in test [8], in [3], in test [4] and in test [6] was > 100 µM throughout. In addition, in [7], the TGI is > 100 µM.
`c1ccc(N2CCN(CCN3CCc4c([nH]c5ccccc45)C3c3cccnc3)CC2)cc1` (stereo not given): the TGI in test [1], in test [2], in test [8], in [3], in test [4] and in test [5] was > 100 µM throughout. For the same compound, in test [6], the TGI was > 100 µM.
For `Nc1ccccc1SC(/C=C/NNC1=NC(c2ccccc2)C(c2ccccc2)=NN1)c1ccccc1` (stereo not given), the TGI in test [2] is 29.1 µM; in [3], 25.3 µM; in [4], 13.1 µM; in test [5], 44.3 µM; in test [6] it was 44.9 µM; in test [7], 33 µM.
For `COc1ccc2c(CN3CCCC[C@H]3O)cc3cc4c(cc3c2c1)OCO4`, the GI50 was 0.223 µM in test [1]; 0.48 µM in [2]; 0.314 µM in [9]; 0.319 µM in [3]; 0.351 µM in test [4]; 0.291 µM in [7]. The GI50 in [10] was 0.467 µM. Also, the TGI in [1] stood at 10.7 µM; in test [2] it was 5.22 µM; in test [9], 3.22 µM; in test [3], 1.15 µM; in test [4], 1.35 µM; in test [7] it was 0.889 µM. Further, the TGI in test [10] came to 3.53 µM.
In the case of `CN(Cc1cnc2nc(N)nc(N)c2n1)c1c(Cl)cc(C(=O)NC(CCC(=O)O)C(=O)O)cc1Cl` (stereo not given), the GI50 in [1] was < 0.01 µM; in test [2] it was < 0.0137 µM; in test [9], < 0.01 µM; in [3], < 0.01 µM; in test [4] it was < 0.01 µM; in [7], > 100 µM. For the same compound, the GI50 in test [10] is < 0.01 µM. In addition, the TGI in [1], in [2], in [9], in [3], in test [4] and in [7] was > 100 µM in each case. The TGI in test [10] is > 100 µM.
Turning to `C=C(CN1CCN(c2ccccn2)CC1)c1ccc(C(=O)Nc2ccccc2N)cc1`, the GI50 in [1] is 2.5 µM; in test [2], 0.936 µM; in test [9], 3.15 µM; in test [3], 8.48 µM; in [4], 2.2 µM; in test [7] it was 1.87 µM. The GI50 in test [10] was 3.78 µM. For the same compound, the TGI was 32.1 µM in [1]; 3.12 µM in [2]; > 50 µM in test [9]; > 50 µM in test [3]; > 50 µM in [4]; > 50 µM in [7]. Also, in [10], the TGI was > 50 µM.
`COc1ccc(C(=O)Cn2c(C(=O)c3ccc(Cl)cc3)nc(-c3ccccc3)c2-c2ccccc2)cc1`: the GI50 in test [1], in [2], in test [9], in test [3], in test [4] and in test [7] was > 100 µM throughout. For the same compound, the GI50 in [10] is > 100 µM. For the same compound, the TGI in test [1], in [2], in [9], in test [3], in test [4] and in [7] was > 100 µM in each case. Besides, the TGI in test [10] was > 100 µM.
